In one assay the target is FABP3 (Homo sapiens, UniProt P05413). The assay can be described thus: Fluorescent probe (DAUDA) displacement from purified FABP3. It is filed as binding. From the text:
(§1) We first examined the binding of EETs (Fig. 1) to purified FABP3, FABP5, and FABP7 via fluorescent probe displacement assays as previously described[30],[31]. 5,6-EET, 8,9-EET, 11,12-EET, and 14,15-EET bound to all three FABPs with distinct selectivity. […] Similarly, 11,12-EET emerged as the preferred ligand for FABP5 followed by 8,9-EET, 5,6-EET, and 14,15-EET (Fig. 2A, Table 1). For FABP7, 11,12-EET bound with highest affinity while interactions of the remaining EETs were considerably weaker.
(§2) Affinities of each ligand were determined via fluorescent probe displacement from purified FABPs as previously described[30],[31],[47]. Ligands were incubated in assay buffer (30 mM Tris, 100 mM NaCl, pH 7.5) containing 3 μM purified FABPs, 500 nM DAUDA (for FABP3 and FABP5) or ANS (for FABP7). AA (10 μM) was included to account for maximal probe displacement. The fluorescence signal was quantified on a F5 Filtermax Multi-Mode Microplate Reader (Molecular Devices) with the excitation and emission wavelengths set at 360/535 nm for DAUDA and 360/465 nm for ANS. After background subtraction, normalized fluorescence values were fit to a one-site binding model using GraphPad Prism (v 9.5) and Ki values were determined using the following equation: Ki = IC50/(1 + ([Probe]/Kd).

The target of assay [1] is T1, FABP5 (Homo sapiens, UniProt Q01469). The assay can be described thus: Fluorescent probe (DAUDA) displacement from purified FABP5. It is filed as binding. As to the method:
We first examined the binding of EETs (Fig. 1) to purified FABP3, FABP5, and FABP7 via fluorescent probe displacement assays as previously described[30],[31].
Affinities of each ligand were determined via fluorescent probe displacement from purified FABPs as previously described[30],[31],[47]. Ligands were incubated in assay buffer (30 mM Tris, 100 mM NaCl, pH 7.5) containing 3 μM purified FABPs, 500 nM DAUDA (for FABP3 and FABP5) or ANS (for FABP7). AA (10 μM) was included to account for maximal probe displacement.

In assay [2] the target is T2, FABP7 (Homo sapiens, UniProt O15540). The assay can be described thus: Fluorescent probe (ANS) displacement from purified FABP7. It is filed as binding.
Description: as §1, §2

Assay [3] concerns CA1 pyramidal neuron glutamate synapses. Set-up: method as in PMID 28526610, PMID 29138698. The note with it: previous studies; cited from earlier work.
For assay [4], the target named is T1, FABP5. Set-up: method as in PMID 8798739, PMID 8608126. To be noted: cited from earlier work.
Assay [5] concerns the target T2, FABP7. Details: method as in PMID 8798739, PMID 8608126. To be noted: cited from earlier work.
Assay [6] relates to CA1 pyramidal neuron glutamate synapses. Kind of assay: Ex vivo whole-cell recordings of evoked EPSCs in hippocampal slices. It is filed as cell-based, C57Bl/6 mice. As to the method: Mice were deeply anesthetized with isoflurane and decapitated. Coronal brain slices (350 μm thick) containing the hippocampus were cut using a vibratome Leica VT 1200 (Leica, CA) in a modified ice-cold […] artificial cerebrospinal fluid (ACSF) composed in mM: 110 mM choline-Cl, 2.5 mM KCl, 0.5 mM CaCl2, 7 mM MgSO4, 1.25 mM NaH2PO4, 26.2 mM NaHCO3, 11.6 mM sodium L-ascorbate, 3.1 mM sodium pyruvate, and 25 mM glucose, and equilibrated with 95% O2 and 5% CO2. Hippocampal slices were first transferred to a chamber with the same cutting solution at 35 °C for 15 min and then to a standard ACSF in mM: 119 mM NaCl, 2.5 mM CaCl2, 1.3 mM MgSO4, 1 mM NaH2PO4, 26.2 mM NaHCO3, and 11 mM glucose continuously bubbled with a mixture of 95% O2 and 5% CO2 for additional 45 min at 35 °C. Slices were allowed to recover at room temperature (≥ 1 h). After recovery, individual slice was transferred to a recording chamber, continuously perfused with standard ACSF containing 0.01% DMSO saturated with 95% O2 and 5% CO2, and warmed at 30 °C.
Hippocampal CA1 pyramidal neurons were visualized using an upright microscope (BX 51 WI; Olympus, Tokyo, Japan) and somatic whole-cell recordings were obtained from pyramidal neurons using glass pipette electrodes with 3–5 MΩ resistance when filled with an internal solution containing: 120 mM potassium gluconate, 10 mM KCl, 10 mM Na2-phosphocreatine, 10 mM HEPES, 1 mM MgCl2, 1 mM EGTA, 2 mM Na2-ATP, 0.25 mM Na-GTP (pH 7.3 adjusted with KOH; osmolarity, 280–290 mOsmol/l). All recordings were performed in the presence of the GABA A receptor antagonist picrotoxin (100 μM). Excitatory postsynaptic currents (EPSCs) were evoked with electrical pulses (5–20 V, 100–200 μs) delivered at 0.1 Hz using glass microelectrode placed in the […] in CA1 pyramidal neurons voltage-clamped at − 70 mV. All recorded currents were amplified with an a Multiclamp 700B amplifier (Molecular Devices, Sunnyvale, CA), filtered at 3 kHz, digitized at 20 kHz with Digidata 1200 (Molecular Devices), and acquired using the pClamp 10.7 software (Molecular Devices, Sunnyvale, CA). To examine the impact of TPPU on the amplitude of evoked EPSCs, at least 10–20 min of stable baseline recordings were obtained and TPPU was perfused to the brain slices (final DMSO concentration of 0.01%).
For the analysis of the electrophysiology data, the amplitude of evoked EPSCs (eEPSC) was determined by measuring the average current during a 2-ms period at the peak of each eEPSC and subtracted from the average baseline current determined during a 5-ms window taken before the stimulus artifact. All eEPSC amplitudes were normalized to the mean baseline amplitude recorded for at least 10 min before drug application. All the data are represented as the mean ± SE and were not transformed.

Where [7] appears, read: mean ± S.E., n = 4, Table 1, read-out: Ki FABP5.

Where two headings read alike, the source gives them in different places.

T2 sequence (O15540 whole entry): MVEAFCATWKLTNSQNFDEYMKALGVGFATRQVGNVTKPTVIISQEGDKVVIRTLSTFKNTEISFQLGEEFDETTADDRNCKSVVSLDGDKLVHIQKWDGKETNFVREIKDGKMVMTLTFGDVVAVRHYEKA
T1 sequence (Q01469 whole entry): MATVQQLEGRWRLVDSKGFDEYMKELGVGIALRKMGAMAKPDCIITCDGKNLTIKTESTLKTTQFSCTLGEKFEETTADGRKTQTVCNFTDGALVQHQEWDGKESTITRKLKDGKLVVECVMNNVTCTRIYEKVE
Chain of FABP3 (P05413 whole entry): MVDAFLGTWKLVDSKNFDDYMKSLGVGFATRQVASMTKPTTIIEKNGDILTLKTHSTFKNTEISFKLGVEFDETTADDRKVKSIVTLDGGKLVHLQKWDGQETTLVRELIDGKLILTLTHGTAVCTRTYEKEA

For the molecule `CCCCCC(O)C=CC1C(O)CC(=O)C1CC=CCCCC(=O)OCC(O)CO` (stereo not shown) [PGE2-GE, prostaglandin E2 glyceryl ester], the Ki at FABP3 (mean ± S.E., n = 4, Table 1) was > 50 µM; at FABP5 [1] (setting [7]), > 50 µM; at FABP7 [2] (mean ± S.E., n = 4, Table 1) it was > 50 µM.

For `CCCCC[C@H]1O[C@H]1C/C=C\C/C=C\C/C=C\CCCC(=O)O` [14,15-EET], the Ki at FABP3 (mean ± S.E., n = 4, Table 1) was 0.65 ± 0.08 µM; on FABP5 [1] (setting [7]) it was 5.56 ± 0.48 µM; at FABP7 [2] (mean ± S.E., n = 4, Table 1), 3.74 ± 0.12 µM. Moreover, the “Effect on hippocampal glutamate synapses” value in assay [3] is given as “potentiates”.

`CCCCC/C=C\C/C=C\C/C=C\C[C@H]1O[C@H]1CCCC(=O)O` [5,6-EET]: the Ki at FABP3 (mean ± S.E., n = 4, Table 1) was determined as 1.44 ± 0.12 µM; at FABP5 [1] (setting [7]) it was 3.57 ± 0.28 µM; at FABP7 [2] (mean ± S.E., n = 4, Table 1), 4.3 ± 0.29 µM.

Take `CCCCC/C=C\C/C=C\C[C@H]1O[C@H]1C/C=C\CCCC(=O)O` [8,9-EET]: the Ki at FABP3 (mean ± S.E., n = 4, Table 1) was found to be 0.17 ± 0.02 µM; at FABP5 [1] (setting [7]), 1.87 ± 0.21 µM; on FABP7 [2] (mean ± S.E., n = 4, Table 1), 3.16 ± 0.3 µM.

On to `CCCCC[C@H](O)/C=C/[C@H]1[C@H](O)CC(=O)[C@@H]1C/C=C\CCCC(=O)O` [PGE2, prostaglandin E2], for which the Ki at FABP3 (mean ± S.E., n = 4, Table 1) was > 50 µM; at FABP5 [1] (setting [7]), > 50 µM; at FABP7 [2] (mean ± S.E., n = 4, Table 1), > 50 µM. The “Affinity for FABP5” value at FABP5 [4] is “does not display appreciable affinity”. In addition, the “Affinity for FABP7” value at FABP7 [5] is listed as “does not display appreciable affinity”.

With `CCCCCCCC/C=C\CCCCCCCC(=O)OC[C@H](O)COP(=O)(O)O` [LPA, oleoyl lysophosphatidic acid], the Ki at FABP3 (mean ± S.E., n = 4, Table 1) is 1.37 ± 0.12 µM; at FABP5 [1] (setting [7]) it was 3.2 ± 0.19 µM; at FABP7 [2] (mean ± S.E., n = 4, Table 1), > 50 µM.

Turning to `CCCCCC=CC=C1C(=O)C=CC1CC=CCCCC(=O)O` (stereo not shown) [15d-PGJ2, 15-deoxy-Δ^12,14-Prostaglandin J2], the Ki at FABP3 (mean ± S.E., n = 4, Table 1) worked out at 1.22 ± 0.14 µM; at FABP5 [1] it was 12.3 ± 1.54 µM; at FABP7 [2] (mean ± S.E., n = 4, Table 1) it was 29.9 ± 5.64 µM.

For `O=C(O)C1[C@H](c2ccccc2)C(C(=O)Oc2cccc3ccccc23)[C@H]1c1ccccc1` (stereo partly shown) [SBFI-26], the Ki on FABP3 (inhibitors, Table 3) was found to be 2.7 ± 0.42 µM; on FABP7 [2] (inhibitors, Table 3), 0.45 ± 0.07 µM. For the same molecule, the “Effect on TPPU-induced potentiation of eEPSCs” value in assay [6] (inhibitor 10 µM with TPPU 10 µM, hippocampal slices) is on record as “significantly reduced”.

Consider `CCCCC/C=C\C[C@H]1O[C@H]1C/C=C\C/C=C\CCCC(=O)O` [11,12-EET], for which the Ki worked out at 0.2 ± 0.03 µM on FABP3 (mean ± S.E., n = 4, Table 1); 0.52 ± 0.07 µM at FABP5 [1] (setting [7]); 1.13 ± 0.11 µM at FABP7 [2] (mean ± S.E., n = 4, Table 1). Moreover, the “Effect on hippocampal glutamate synapses” value in assay [3] is on record as “depresses”.

On to `CCC(=O)N1CCC(NC(=O)Nc2ccc(OC(F)(F)F)cc2)CC1` [TPPU], for which, in assay [6] (TPPU 10 µM), the “CA1 pyramidal neurons showing depression of eEPSC amplitude” value is 41% and the “CA1 pyramidal neurons showing potentiation of eEPSC amplitude” value is 47%. Also, the “Coefficient of variation (CV) during depression of EPSCs” value in assay [6] (TPPU 10 µM vs baseline, n = 5, p = 0.086) is given as “not accompanied with significant changes”. In addition, the “Paired pulse ratio (PPR) during depression of EPSCs” value in assay [6] (TPPU 10 µM vs baseline, n = 5, p = 0.108) is “not accompanied with significant changes”. The “Coefficient of variation (CV) during potentiation of eEPSCs” value in assay [6] (TPPU 10 µM vs baseline, n = 7, p = 0.0017) is “significant decrease”. In addition, the “Paired pulse ratio (PPR) during potentiation of eEPSCs” value in assay [6] (TPPU 10 µM vs baseline, n = 7, p = 0.042) was “significant decrease”.

Take `CCCCC[C@H](O)/C=C/[C@@H]1[C@@H](C/C=C\CCCC(=O)O)[C@@H](O)C[C@H]1O` [PGF2α]: the Ki at FABP3 (mean ± S.E., n = 4, Table 1) was > 50 µM; at FABP5 [1] (setting [7]), > 50 µM; on FABP7 [2] (mean ± S.E., n = 4, Table 1) it was > 50 µM.

For the molecule `CCCCCC(O)C=CC1C(O)CC(O)C1CC=CCCCC(=O)NCCO` (stereo not drawn) [PGF2α-EA, prostamide F2α], the Ki at FABP3 (mean ± S.E., n = 4, Table 1) was > 50 µM; on FABP5 [1] (setting [7]) it was > 50 µM; on FABP7 [2] (mean ± S.E., n = 4, Table 1), > 50 µM.

Broadly, the Ki is a dissociation constant, usually derived from enzyme kinetics or from competition with a known ligand.

Values taken from article PMC10502087, “Fatty acid binding proteins are novel modulators of synaptic epoxyeicosatrienoic acid signaling in the brain” (Scientific Reports, 2023).
